Test results reported in patent US6737383B1, “Herbicidal oxadiazolidines” (priority 1999, dated 2004).

Key:
bedstraw = assay: Test B pre/postemergence bedstraw; type: in vivo, Galium aparine
Outline: (§1)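 Herbicidal effect was estimated by eye on a ten-point control scale after plants spent twelve to sixteen days in a greenhouse following soil or foliar treatment. Foliar sprays targeted plants at one to four leaves; all doses were formulated in a non-phytotoxic solvent with surfactant.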

blackgrass = assay: Test B pre/postemergence blackgrass; type: in vivo, Alopecurus myosuroides
Outline: as §1

surinam grass = assay: Test B pre/postemergence surinam grass; type: in vivo, Brachiaria decumbens
Outline: as §1

cocklebur = assay: Test B pre/postemergence cocklebur; type: in vivo, Xanthium strumarium
Outline: as §1

corn = assay: Test B pre/postemergence corn; type: in vivo, Zea mays
Outline: as §1

crabgrass = assay: Test B pre/postemergence crabgrass; type: in vivo, Digitaria sanguinalis
Outline: as §1

giant foxtail = assay: Test B pre/postemergence giant foxtail; type: in vivo, Setaria faberii
Outline: as §1

morningglory = assay: Test B pre/postemergence morningglory; type: in vivo, Ipomoea hederacea
Outline: as §1

pigweed = assay: Test B pre/postemergence pigweed; type: in vivo, Amaranthus retroflexus
Outline: as §1

rape = assay: Test B pre/postemergence rape; type: in vivo, Brassica napus
Outline: as §1

soybean = assay: Test B pre/postemergence soybean; type: in vivo, Glycine max; details: Preemergence
Outline: as §1

sugar beet = assay: Test B pre/postemergence sugar beet; type: in vivo, Beta vulgaris; details: Preemergence
Outline: as §1

velvetleaf = assay: Test B pre/postemergence velvetleaf; type: in vivo, Abutilon theophrasti; details: Preemergence
Outline: as §1

wheat = assay: Test B pre/postemergence wheat; type: in vivo, Triticum aestivum; details: Preemergence
Outline: as §1

wild oat = assay: Test B pre/postemergence wild oat; type: in vivo, Avena fatua; details: Preemergence
Outline: as §1

purple nutsedge = assay: Test B pre/postemergence purple nutsedge; type: in vivo, Cyperus rotundus; details: Postemergence
Outline: as §1

rice = assay: Test B flood test rice; type: in vivo, Oryza sativa
Outline: (§2)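 Read-out is a visual response score from 0 (no effect) to 10 (complete control), assigned by comparison with untreated controls. Treatment was applied at the 2-leaf stage, and plants stayed in the greenhouse for twelve to sixteen days before scoring.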

smallflower flatsedge = assay: Test B flood test smallflower flatsedge; type: in vivo, Cyperus difformis
Outline: as §2

duck salad = assay: Test B flood test duck salad; type: in vivo, Heteranthera limosa
Outline: as §2

bamyardgrass = assay: Test B flood test barnyardgrass; type: in vivo, Echinochloa crus-galli
Outline: as §2

[1] = Preemergence, Rate 31 g/ha, visual rating, scale 0 to 10 (0 no effect, 10 complete control)
[2] = Preemergence, Rate 62 g/ha, scale of 0 to 10 where 0 is no effect and 10 is complete control
[3] = Preemergence, Rate 250 g/ha, scale of 0 to 10 where 0 is no effect and 10 is complete control
[4] = Rate 31 g/ha, Postemergence, scale 0 to 10
[5] = Rate 62 g/ha, Postemergence, scale of 0 to 10 where 0 is no effect and 10 is complete control
[6] = Rate 125 g/ha, Postemergence, scale 0 to 10
[7] = Rate 125 g/ha, Preemergence, scale of 0 to 10 where 0 is no effect and 10 is complete control
[8] = Rate 31 g/ha, visual rating, scale 0 to 10 (0 no effect, 10 complete control)
[9] = Rate 62 g/ha, scale of 0 to 10 where 0 is no effect and 10 is complete control
[10] = Rate 250 g/ha, scale of 0 to 10 where 0 is no effect and 10 is complete control
[11] = Rate 125 g/ha, scale of 0 to 10 where 0 is no effect and 10 is complete control
[12] = Rate 62 g/ha, headed Pre-emergence (flood test species), scale 0 to 10 (0 no effect, 10 complete control)
[13] = Rate 125 g/ha, Pre-emergence, flood test species, scale 0 to 10 where 0 is no effect and 10 is complete control
[14] = Rate 250 g/ha, Pre-emergence, flood-test species, scale 0 to 10, 0 is no effect, 10 is complete control
[15] = Rate 500 g/ha, Pre-emergence, flood test species, scale 0 to 10 (0 no effect, 10 complete control)

For CC(C)N(C(=O)n1oc(=O)n(CCc2ccccc2)c1=O)c1ccc(F)cc1 [Compound 250], the “Bedstraw plant response rating” value (bedstraw; [1]) was 0, the “Bedstraw plant response rating” value (bedstraw; [2]) was 0 and the “Bedstraw plant response rating” value (bedstraw; [3]) was 0. The “Bedstraw plant response rating” value (bedstraw; [4]) was 0, the “Bedstraw plant response rating” value (bedstraw; [5]) was 0 and the “Bedstraw plant response rating” value (bedstraw; [6]) was 0. The “Bedstraw plant response rating” value (bedstraw; [7]) was 0, the “Plant response rating (0 to 10; 0 is no effect, 10 is complete control), Bedstraw” value (bedstraw; Rate 250 g/ha, Postemergence) was 9 and the “Blackgrass plant response rating” value (blackgrass; [1]) was 0. For the same molecule, the “Blackgrass plant response rating” value (blackgrass; [2]) was 0, the “Blackgrass plant response rating” value (blackgrass; [3]) was 0 and the “Blackgrass plant response rating” value (blackgrass; [4]) was 0. For the same molecule, the “Blackgrass plant response rating” value (blackgrass; [5]) was 0, the “Blackgrass plant response rating” value (blackgrass; [6]) was 0 and the “Blackgrass plant response rating” value (blackgrass; [7]) was 0. For the same molecule, the “Plant response rating (0 to 10; 0 is no effect, 10 is complete control), Blackgrass” value (blackgrass; Rate 250 g/ha, Postemergence) was 2, the “B. signalgrass plant response rating” value (surinam grass; [1]) was 0 and the “B. signalgrass plant response rating” value (surinam grass; [2]) was 0. The “B. signalgrass plant response rating” value (surinam grass; [3]) was 0, the “B. signalgrass plant response rating” value (surinam grass; [4]) was 0 and the “B. signalgrass plant response rating” value (surinam grass; [5]) was 0. The “B. signalgrass plant response rating” value (surinam grass; Rate 125 g/ha, Postemergence, scale 0 (no effect) to 10 (complete control)) was 0, the “B. signalgrass plant response rating” value (surinam grass; [7]) was 0 and the “Plant response rating (0 to 10; 0 is no effect, 10 is complete control), B. signalgrass” value (surinam grass; Rate 250 g/ha, Postemergence) was 0. For the same molecule, the “Cocklebur plant response rating” value (cocklebur; [1]) was 0, the “Cocklebur plant response rating” value (cocklebur; [2]) was 0 and the “Cocklebur plant response rating” value (cocklebur; [3]) was 0. The “Cocklebur plant response rating” value (cocklebur; [4]) was 0, the “Cocklebur plant response rating” value (cocklebur; [5]) was 0 and the “Cocklebur plant response rating” value (cocklebur; [6]) was 0. For the same molecule, the “Cocklebur plant response rating” value (cocklebur; [7]) was 0, the “Plant response rating (0 to 10; 0 is no effect, 10 is complete control), Cocklebur” value (cocklebur; Rate 250 g/ha, Postemergence) was 1 and the “Corn plant response rating” value (corn; [1]) was 0. For the same molecule, the “Corn plant response rating” value (corn; [2]) was 0, the “Corn plant response rating” value (corn; [3]) was 0 and the “Corn plant response rating” value (corn; [4]) was 0. For the same molecule, the “Corn plant response rating” value (corn; [5]) was 0, the “Corn plant response rating” value (corn; [6]) was 0 and the “Corn plant response rating” value (corn; [7]) was 0. For the same molecule, the “Plant response rating (0 to 10; 0 is no effect, 10 is complete control), Corn” value (corn; Rate 250 g/ha, Postemergence) was 0, the “Crabgrass plant response rating” value (crabgrass; [1]) was 0 and the “Crabgrass plant response rating” value (crabgrass; [2]) was 2. The “Crabgrass plant response rating” value (crabgrass; [3]) was 8, the “Crabgrass plant response rating” value (crabgrass; [4]) was 0 and the “Crabgrass plant response rating” value (crabgrass; [7]) was 4. The “Plant response rating (0 to 10; 0 is no effect, 10 is complete control), Crabgrass” value (crabgrass; Rate 250 g/ha, Postemergence) was 0, the “Giant foxtail plant response rating” value (giant foxtail; [1]) was 7 and the “Giant foxtail plant response rating” value (giant foxtail; [2]) was 8. For the same molecule, the “Giant foxtail plant response rating” value (giant foxtail; [3]) was 10, the “Giant foxtail plant response rating” value (giant foxtail; [4]) was 0 and the “Giant foxtail plant response rating” value (giant foxtail; [7]) was 8. For the same molecule, the “Plant response rating (0 to 10; 0 is no effect, 10 is complete control), Giant foxtail” value (giant foxtail; Rate 250 g/ha, Postemergence) was 0, the “Morningglory plant response rating” value (morningglory; [1]) was 0 and the “Morningglory plant response rating” value (morningglory; [2]) was 0. For the same molecule, the “Morningglory plant response rating” value (morningglory; [3]) was 0, the “Morningglory plant response rating” value (morningglory; [4]) was 4 and the “Morningglory plant response rating” value (morningglory; [7]) was 0. For the same molecule, the “Plant response rating (0 to 10; 0 is no effect, 10 is complete control), Morningglory” value (morningglory; Rate 250 g/ha, Postemergence) was 6, the “Redroot pigweed plant response rating” value (pigweed; [1]) was 0 and the “Redroot pigweed plant response rating” value (pigweed; [2]) was 0. For the same molecule, the “Redroot pigweed plant response rating” value (pigweed; [3]) was 3, the “Redroot pigweed plant response rating” value (pigweed; [4]) was 0 and the “Redroot pigweed plant response rating” value (pigweed; [7]) was 3. For the same molecule, the “Plant response rating (0 to 10; 0 is no effect, 10 is complete control), Redroot pigweed” value (pigweed; Rate 250 g/ha, Postemergence) was 0, the “Rape plant response rating” value (rape; [1]) was 0 and the “Rape plant response rating” value (rape; [2]) was 0. For the same molecule, the “Rape plant response rating” value (rape; [3]) was 0, the “Rape plant response rating” value (rape; [4]) was 0 and the “Rape plant response rating” value (rape; [7]) was 0. The “Plant response rating (0 to 10; 0 is no effect, 10 is complete control), Rape” value (rape; Rate 250 g/ha, Postemergence) was 3, the “Soybean plant response rating” value (soybean; [8]) was 0 and the “Soybean plant response rating” value (soybean; [9]) was 0. For the same molecule, the “Soybean plant response rating” value (soybean; [10]) was 0, the “Soybean plant response rating” value (soybean; [11]) was 0 and the “Sugarbeets plant response rating” value (sugar beet; [8]) was 0. For the same molecule, the “Sugarbeets plant response rating” value (sugar beet; [9]) was 0, the “Sugarbeets plant response rating” value (sugar beet; [10]) was 5 and the “Sugarbeets plant response rating” value (sugar beet; [11]) was 0. For the same molecule, the “Velvetleaf plant response rating” value (velvetleaf; [8]) was 0, the “Velvetleaf plant response rating” value (velvetleaf; [9]) was 0 and the “Velvetleaf plant response rating” value (velvetleaf; [10]) was 0. For the same molecule, the “Velvetleaf plant response rating” value (velvetleaf; [11]) was 0, the “Wheat plant response rating” value (wheat; [8]) was 0 and the “Wheat plant response rating” value (wheat; [9]) was 0. For the same molecule, the “Wheat plant response rating” value (wheat; [10]) was 0, the “Wheat plant response rating” value (wheat; [11]) was 0 and the “Wild oats plant response rating” value (wild oat; [8]) was 0. The “Wild oats plant response rating” value (wild oat; [9]) was 0, the “Wild oats plant response rating” value (wild oat; [10]) was 0 and the “Wild oats plant response rating” value (wild oat; [11]) was 0. For the same molecule, the “Nutsedge plant response rating” value (purple nutsedge; Rate 31 g/ha, scale 0 to 10) was 0, the “Plant response rating (0 to 10; 0 is no effect, 10 is complete control), Nutsedge” value (purple nutsedge; Rate 250 g/ha) was 0 and the “Rice plant response rating” value (rice; [12]) was 0. The “Rice plant response rating” value (rice; [13]) was 0, the “Rice plant response rating” value (rice; [14]) was 0 and the “Rice plant response rating” value (rice; [15]) was 0. For the same molecule, the “S. Flatsedge plant response rating” value (smallflower flatsedge; [12]) was 0, the “S. Flatsedge plant response rating” value (smallflower flatsedge; [13]) was 0 and the “S. Flatsedge plant response rating” value (smallflower flatsedge; [14]) was 0. The “S. Flatsedge plant response rating” value (smallflower flatsedge; [15]) was 0, the “Ducksalad plant response rating” value (duck salad; [12]) was 0 and the “Ducksalad plant response rating” value (duck salad; [13]) was 0. For the same molecule, the “Ducksalad plant response rating” value (duck salad; [14]) was 0, the “Ducksalad plant response rating” value (duck salad; [15]) was 4 and the “Barnyardgrass plant response rating” value (bamyardgrass; [12]) was 0. The “Barnyardgrass plant response rating” value (bamyardgrass; [13]) was 0, the “Barnyardgrass plant response rating” value (bamyardgrass; [14]) was 0 and the “Barnyardgrass plant response rating” value (bamyardgrass; [15]) was 0.
